The record followed here is US20230123856A1, “5-FLUORONICOTINAMIDE DERIVATIVES AND USES THEREOF” (Tenaya Therapeutics, Inc., priority 2019, published 2023).

The experiment concerns the target T1, HDAC6 (Homo sapiens, UniProt Q9UBN7).
T1 sequence (Q9UBN7 1-1215): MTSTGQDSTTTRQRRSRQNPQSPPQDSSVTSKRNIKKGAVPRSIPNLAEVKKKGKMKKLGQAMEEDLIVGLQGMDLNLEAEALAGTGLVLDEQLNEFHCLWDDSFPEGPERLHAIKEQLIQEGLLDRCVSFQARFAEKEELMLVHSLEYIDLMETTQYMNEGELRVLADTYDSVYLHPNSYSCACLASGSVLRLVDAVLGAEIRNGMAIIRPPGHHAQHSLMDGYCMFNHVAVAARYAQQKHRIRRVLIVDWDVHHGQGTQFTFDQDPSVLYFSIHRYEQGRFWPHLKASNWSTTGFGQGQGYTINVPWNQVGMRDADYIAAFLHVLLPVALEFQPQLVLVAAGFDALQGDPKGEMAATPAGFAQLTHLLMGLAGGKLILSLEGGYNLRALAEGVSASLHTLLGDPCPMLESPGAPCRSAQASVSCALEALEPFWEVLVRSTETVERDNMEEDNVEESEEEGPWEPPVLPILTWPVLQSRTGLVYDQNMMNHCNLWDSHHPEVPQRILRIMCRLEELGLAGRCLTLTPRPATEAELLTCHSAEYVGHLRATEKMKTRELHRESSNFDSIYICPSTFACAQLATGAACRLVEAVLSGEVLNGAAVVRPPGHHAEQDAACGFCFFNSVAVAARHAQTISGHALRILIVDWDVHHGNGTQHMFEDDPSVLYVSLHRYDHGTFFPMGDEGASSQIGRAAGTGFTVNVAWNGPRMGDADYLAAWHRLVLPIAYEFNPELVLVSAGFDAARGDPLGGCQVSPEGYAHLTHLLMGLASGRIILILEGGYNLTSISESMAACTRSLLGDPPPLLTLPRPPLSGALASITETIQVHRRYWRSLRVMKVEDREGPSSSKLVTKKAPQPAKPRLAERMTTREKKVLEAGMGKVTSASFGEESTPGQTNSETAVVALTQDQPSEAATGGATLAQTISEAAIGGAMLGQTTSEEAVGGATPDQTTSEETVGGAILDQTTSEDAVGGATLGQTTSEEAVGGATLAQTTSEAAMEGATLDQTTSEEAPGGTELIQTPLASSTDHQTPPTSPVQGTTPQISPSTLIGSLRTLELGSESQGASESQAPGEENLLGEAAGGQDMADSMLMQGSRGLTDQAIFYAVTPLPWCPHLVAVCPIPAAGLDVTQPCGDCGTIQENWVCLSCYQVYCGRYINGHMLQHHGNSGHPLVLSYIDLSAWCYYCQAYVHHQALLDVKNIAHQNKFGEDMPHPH
The experiment is described as follows: Biochemical luminescent HDAC-Glo I/II assay, HDAC6. Particulars: recombinant HDAC6 protein, HDAC-Glo I/II luminescent substrate.

For the compound `Cc1c(C)n(Cc2ncc(C(=O)NO)cc2F)c2ncccc12` [Compound I-51], the IC50 is 1.94 nM.
Consider `O=C(NO)c1cnc(NC2(c3ccccn3)CCC2)c(F)c1` [Compound I-37], for which the IC50 turned out to be 2.18 nM.
Next, `CO[C@H]1COC[C@@H]1Nc1ncc(C(=O)NO)cc1F` [Compound I-38]: 5.67 nM; `Cc1nc2cccnc2n1Cc1ncc(C(=O)NO)cc1F` [Compound I-53]: 8.69 nM; `O=C(NO)c1cnc(Cn2c(N3CCOCC3)nc3ccccc32)c(F)c1` [Compound I-54]: 80.3 nM.
Consider `O=C(NO)c1cnc(Cn2ccc3cc(C(=O)NC4CC4)cnc32)c(F)c1` [Compound I-55, N-cyclopropyl-1-((3-fluoro-5-(hydroxycarbamoyl)pyridin-2-yl)methyl)-1H-pyrrolo[2,3-b]pyridine-5-carboxamide], for which the IC50 worked out at 3.88 nM.
As to `COCC1(Nc2ncc(C(=O)NO)cc2F)CC(F)(F)C1` [Compound I-39], the concentration for half-maximal inhibition (IC50) amounted to 1.12 nM.
Turning to `O=C(NO)c1cnc(N[C@@H]2CCNC2=O)c(F)c1` [Compound I-43B], the 50% inhibitory concentration (IC50) was 25.7 nM.
For the compound `O=C(NO)c1cnc(OC2(c3ccccn3)COC2)c(F)c1` [III-2, 5-fluoro-N-hydroxy-6-{[3-(pyridin-2-yl)oxetan-3-yl]oxy}pyridine-3-carboxamide], the IC50 amounted to 14.6 nM.
`O=C(NO)c1cnc(NC2(C3CC3)CC2)c(F)c1` [Compound I-41]: the IC50 is 3.97 nM.
As to `CN1CC[C@H](Nc2ncc(C(=O)NO)cc2F)C1=O` [Compound I-42A], the IC50 came out at 34.3 nM.
For `O=C(NO)c1cnc(N[C@H]2CCNC2=O)c(F)c1` [Compound I-43A], the IC50 was found to be 51.1 nM.
Next, `Cc1cc2cccnc2n1Cc1ncc(C(=O)NO)cc1F` [Compound I-50]: 2.98 nM; `O=C(NO)c1cnc(Cn2c3c(c4ccccc42)S(=O)(=O)CC3)c(F)c1` [Compound I-48]: 2.27 nM; `O=C(NO)c1cnc(NC2(c3ccccn3)COC2)c(F)c1` [Compound I-56]: 7.67 nM.
Next, `COC(=O)N(Cc1ncc(C(=O)NO)cc1F)c1ncccc1O` [Compound I-52]: 4.29 nM.
Next, `O=C(NO)c1cnc(NC2(c3ncccn3)CC2)c(F)c1` [Compound I-46, 5-fluoro-N-hydroxy-6-((1-(pyrimidin-2-yl)cyclopropyl)amino)nicotinamide]: 29.2 nM.
With `CN1CC[C@@H](Nc2ncc(C(=O)NO)cc2F)C1=O` [Compound I-42B], the 50% inhibitory concentration (IC50) stood at 41.7 nM.
Under `O=C(NO)c1cnc(NC2(c3ncccc3F)CC2)c(F)c1` [Compound I-45, 5-fluoro-6-{[1-(3-fluoropyridin-2-yl)cyclopropyl]amino}-N-hydroxypyridine-3-carboxamide] stands 6.51 nM; under `CN1Cc2ccccc2N(Cc2ncc(C(=O)NO)cc2F)C1=O` [Compound I-47], 4.36 nM; under `O=C(NO)c1cnc(Cn2c(C(F)(F)F)nc3ccccc32)c(F)c1` [Compound I-49], 5.11 nM.
Next, `CCC1(Nc2ncc(C(=O)NO)cc2F)COC1` [Compound I-40]: 3.36 nM; `COCCC1(Nc2ncc(C(=O)NO)cc2F)CC1` [Compound I-44]: 4.71 nM.
